The values below come from article PMC7274485, “A symbiotic bacterium of shipworms produces a compound with broad spectrum anti-apicomplexan activity” (PLoS Pathogens, 2020).

Molecules are shown by their SMILES. Like-named read-outs stand apart in the source and are kept apart here.

Data set [1] has as its system extracellular T. gondii tachyzoites. Nature of the data set: Extracellular T. gondii tachyzoites treated 2 hours, washed, then infection of HFF quantified by luciferase. The class given is cell-based, Toxoplasma gondii. As to the method: Because we had tested the compound against intracellular parasites, it was unclear if trtE was exerting a direct effect on the parasites, or if trtE acted indirectly on the parasites by modulating host cell pathways. […] Growth of the parasites was measured 24 hours later by luciferase expression.
To determine the direct effect of trtE on T. gondii, RH GFP/Luc tachyzoites that had exited from host cells were combined with trtE at varying concentrations and incubated at 37°C and 5% CO2 for 2 hours. Tachyzoites in 0.01% DMSO were run in parallel. The parasites were washed to remove compound and added to 96-well plates containing confluent HFFs. Growth was monitored 24 hours later using Bright-glo Luciferase assay system (Promega). Percent inhibition was calculated as ((luciferase reading DMSO treated parasites—luciferase reading of trtE treated parasites)/ luciferase reading DMSO treated parasites)*100.

In data set [2] the test system is Cryptosporidium parvum. Nature of the data set: Nanoluciferase-expressing C. parvum inhibitor response assay in HCT-8 cells. The class given is cell-based. Conditions: HCT-8 cells infected 24 hours, read 48 hours post-treatment, read-out: EC50 against C. parvum. As to the method: We had postulated that secondary metabolites generated by symbiotic bacteria of invertebrates might include compounds that target gregarines, an ancient group of apicomplexans found in most, and perhaps all, invertebrates. The only gregarines known to infect mammals are Cryptosporidium species, gastrointestinal parasites that cause diarrheal disease in humans and other mammals. HCT8 cells were infected with luciferase-expressing Cryptosporidium parvum parasites for 24 hours, then two-fold dilutions of trtE added to the infected cells. 48 hours after the addition of trtE, parasite growth was quantified by luciferase expression. […] To examine the morphology of trtE treated C. parvum parasites, HCT8 cells were infected with C. parvum oocysts for 8 hours. Extracellular parasites were washed off and medium containing 60 nM trtE added to the infected cells. After 12 hours of treatment, infected cells were fixed and processed for IFAs.
C. parvum oocysts expressing nanoluciferase (nLuc) were obtained from the Cryptosporidium Production Laboratory at the University of Arizona and inhibitor response assays were conducted as previously described.

Data set [3] relates to Theileria equi. The experiment in a line: Theileria equi 72 hr in vitro parasite growth inhibition assay. The class given is cell-based. As to the method:
The effect of trtE on proliferation of T. equi was evaluated in a 72 hr in vitro parasite growth inhibition assay performed as previously described using the USDA Florida strain of T. equi.
A. Bovine turbinate cells infected with luciferase expressing Sarcocystis neurona merozoites were treated with trtE for 24 hours and parasite growth evaluated by luciferase expression. […] B. Theileria equi-infected erythrocytes were incubated with trtE or DMSO vehicle control and proliferation was measured after 72 hours by SYBR green incorporation. Percent proliferation was calculated relative to DMSO treated controls. […] (DOCX) Click here for additional data file.

Data set [4] relates to B. bovis. Nature of the data set: Immunofluorescence assay of B. bovis CE11/p2xHA-glmS-gfp-bsd infected erythrocytes. The class given is cell-based, Babesia bovis. The note with it: 50 nM trtE, 24 hours. As to the method:
To evaluate the morphological changes in one of the intraerythrocytic parasites, B. bovis CE11/p2xHA-glmS-gfp-bsd parasites were exposed to 50 nM trtE or DMSO for 24 hours then fixed and processed for IFA. This B. bovis line expresses a soluble green fluorescent protein-blasticidin deaminase fusion protein (gfp-bsd),that was labeled with anti-GFP antibodies to visualize the parasite cytoplasm (Fig 3E, green fluorescence). […] Mis-localization of both the soluble gfp-bsd fusion protein (green label) and the RAP-1 protein (red label) was also observed. […]
For all IFAs, the investigator reading the slides and collecting images was blind to the sample treatment. […] 24 hours post treatment, infected cells were fixed with methanol, and parasites detected with rabbit anti-SAG1 antibody for T. gondii or rabbit anti-gp15 for C. parvum as we have described previously. […] This CE11 line is transiently transfected with a plasmid that expresses nanoluciferase from a B. divergens promoter and green fluorescence protein-blasticidin (gfp-bsd) from the selection cassette. […] Cells were incubated with rabbit anti-GFP (GenScript; Piscataway, NJ; cat. #A01388) and mouse monoclonal MBOC79B1 (a gift from G. Palmer) anti-BbRAP-1 protein antibodies, and reactions detected with goat anti-rabbit IgG-Alexafluor 488 and goat anti-mouse IgG-Alexafluor 594 antibodies (Invitrogen; Carlsbad, CA). […]

Data set [5] is described as follows: Pilot pharmacokinetic study in lambs. Format: in vivo. The source says: A full PK/PD study of trtE in mice and lambs has recently been funded, so in the near future we will be able to answer these questions.

Turning to `CC1CCC=CC=CCCC(O)CC(=O)CC2CCC(C)C3(O2)O[B-]24OC(C(=O)O1)C1(OC(CCC1C)CC(=O)CC(O)CCC=CC=CCCC(C)OC(=O)C3O2)O4` (centres unmarked) [trtE, tartrolon E], the EC50 in data set [1] (Toxoplasma gondii, RH strain tachyzoites treated 2 hours, washed, growth in HFF after 24 hours, read-out: EC50 against extracellular T. gondii tachyzoites) was determined as 3.1 nM; in data set [2], 3.85 nM; in data set [3] (Erythrocyte, infected erythrocytes, 72 hours, read-out: EC50 against T. equi) it was 0.391 nM; in data set [3] (Table 1, rounded, read-out: EC50 against T. equi (Table 1)) it was 0.4 nM. The “Effect of excess K+ ions on trtE activity against extracellular tachyzoites” value in data set [1] (addition of excess K+ ions, no positive control) is on record as “had no effect”. In data set [4], the “Morphology of trtE treated B. bovis (IFA)” value is on record as “distinctly rounded morphology”. In addition, the “Absorption from the intestine” value in data set [5] (in vivo) is given as “rapidly absorbed from the intestine”. Further, in data set [5] (pilot study, lambs), the Tolerability in lambs result is “tolerated by the animals”.
